Tests used:
[1] = target: Tyrosine-protein kinase JAK2 (Homo sapiens, UniProt O60674); design: species or system Sf21
[2] = target: Tyrosine-protein kinase JAK1 (Homo sapiens, UniProt P23458)
[3] = target: T1, Tyrosine-protein kinase JAK3 (Homo sapiens, UniProt P52333)
T1 sequence (P52333 whole entry): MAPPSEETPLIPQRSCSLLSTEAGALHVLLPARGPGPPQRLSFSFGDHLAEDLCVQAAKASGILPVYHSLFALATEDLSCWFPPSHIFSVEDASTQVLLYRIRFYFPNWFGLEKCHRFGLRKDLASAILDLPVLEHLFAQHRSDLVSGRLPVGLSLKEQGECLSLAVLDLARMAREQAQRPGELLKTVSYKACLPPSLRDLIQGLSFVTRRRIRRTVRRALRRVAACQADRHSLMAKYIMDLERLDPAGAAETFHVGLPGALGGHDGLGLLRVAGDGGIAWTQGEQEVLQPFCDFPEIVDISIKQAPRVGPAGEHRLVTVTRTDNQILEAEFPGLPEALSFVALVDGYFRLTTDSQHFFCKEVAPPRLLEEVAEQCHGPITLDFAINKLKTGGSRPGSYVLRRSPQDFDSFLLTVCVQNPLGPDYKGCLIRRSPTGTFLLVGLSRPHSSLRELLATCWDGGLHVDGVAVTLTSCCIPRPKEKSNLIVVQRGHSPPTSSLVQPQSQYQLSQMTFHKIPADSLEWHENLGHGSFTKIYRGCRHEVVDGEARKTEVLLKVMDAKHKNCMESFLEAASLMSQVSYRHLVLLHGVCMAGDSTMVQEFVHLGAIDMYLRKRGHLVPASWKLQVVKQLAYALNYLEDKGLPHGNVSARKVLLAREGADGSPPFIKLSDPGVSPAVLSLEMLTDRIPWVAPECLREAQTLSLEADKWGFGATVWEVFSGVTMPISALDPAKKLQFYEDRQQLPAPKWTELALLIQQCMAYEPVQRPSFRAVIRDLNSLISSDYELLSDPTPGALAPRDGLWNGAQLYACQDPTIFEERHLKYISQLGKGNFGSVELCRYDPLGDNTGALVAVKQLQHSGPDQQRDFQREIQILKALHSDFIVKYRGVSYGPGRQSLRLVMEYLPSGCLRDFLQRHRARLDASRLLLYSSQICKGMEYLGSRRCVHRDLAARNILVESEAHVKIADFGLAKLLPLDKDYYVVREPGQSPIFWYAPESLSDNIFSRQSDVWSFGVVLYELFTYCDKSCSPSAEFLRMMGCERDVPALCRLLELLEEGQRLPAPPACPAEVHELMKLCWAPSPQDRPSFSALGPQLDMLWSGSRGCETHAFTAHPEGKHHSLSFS

Chain of Tyrosine-protein kinase JAK1 (P23458 whole entry): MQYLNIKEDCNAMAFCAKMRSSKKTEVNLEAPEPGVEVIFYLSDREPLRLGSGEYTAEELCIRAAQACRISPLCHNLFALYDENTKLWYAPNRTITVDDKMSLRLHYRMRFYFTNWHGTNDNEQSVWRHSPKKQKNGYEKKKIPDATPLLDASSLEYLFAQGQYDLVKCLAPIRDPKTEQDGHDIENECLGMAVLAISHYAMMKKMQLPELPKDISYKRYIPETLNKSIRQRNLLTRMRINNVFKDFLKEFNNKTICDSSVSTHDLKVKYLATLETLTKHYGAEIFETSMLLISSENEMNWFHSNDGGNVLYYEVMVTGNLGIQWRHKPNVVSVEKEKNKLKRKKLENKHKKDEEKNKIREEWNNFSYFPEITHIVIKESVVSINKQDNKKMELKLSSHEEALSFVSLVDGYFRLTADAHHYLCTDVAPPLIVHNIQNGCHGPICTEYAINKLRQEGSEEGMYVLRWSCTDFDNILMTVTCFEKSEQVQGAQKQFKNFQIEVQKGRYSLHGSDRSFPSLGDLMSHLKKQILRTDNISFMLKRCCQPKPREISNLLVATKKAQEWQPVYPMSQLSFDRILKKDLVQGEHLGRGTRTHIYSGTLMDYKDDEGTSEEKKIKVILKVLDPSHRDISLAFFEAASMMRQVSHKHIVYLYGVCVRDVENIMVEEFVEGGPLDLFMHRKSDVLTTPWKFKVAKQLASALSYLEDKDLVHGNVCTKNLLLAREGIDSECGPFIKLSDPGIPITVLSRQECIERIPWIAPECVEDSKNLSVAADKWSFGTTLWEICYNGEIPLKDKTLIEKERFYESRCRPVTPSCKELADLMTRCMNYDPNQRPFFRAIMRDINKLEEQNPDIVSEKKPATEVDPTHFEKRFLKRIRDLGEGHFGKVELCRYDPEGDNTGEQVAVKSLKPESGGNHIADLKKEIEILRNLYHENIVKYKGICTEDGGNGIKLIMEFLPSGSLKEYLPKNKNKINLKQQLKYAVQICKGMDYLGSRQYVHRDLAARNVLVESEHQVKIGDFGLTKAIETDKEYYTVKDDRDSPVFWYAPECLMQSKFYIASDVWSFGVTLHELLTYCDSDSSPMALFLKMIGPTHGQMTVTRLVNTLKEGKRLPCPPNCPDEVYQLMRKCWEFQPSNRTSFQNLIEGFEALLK
Chain of Tyrosine-protein kinase JAK2 (O60674 whole entry): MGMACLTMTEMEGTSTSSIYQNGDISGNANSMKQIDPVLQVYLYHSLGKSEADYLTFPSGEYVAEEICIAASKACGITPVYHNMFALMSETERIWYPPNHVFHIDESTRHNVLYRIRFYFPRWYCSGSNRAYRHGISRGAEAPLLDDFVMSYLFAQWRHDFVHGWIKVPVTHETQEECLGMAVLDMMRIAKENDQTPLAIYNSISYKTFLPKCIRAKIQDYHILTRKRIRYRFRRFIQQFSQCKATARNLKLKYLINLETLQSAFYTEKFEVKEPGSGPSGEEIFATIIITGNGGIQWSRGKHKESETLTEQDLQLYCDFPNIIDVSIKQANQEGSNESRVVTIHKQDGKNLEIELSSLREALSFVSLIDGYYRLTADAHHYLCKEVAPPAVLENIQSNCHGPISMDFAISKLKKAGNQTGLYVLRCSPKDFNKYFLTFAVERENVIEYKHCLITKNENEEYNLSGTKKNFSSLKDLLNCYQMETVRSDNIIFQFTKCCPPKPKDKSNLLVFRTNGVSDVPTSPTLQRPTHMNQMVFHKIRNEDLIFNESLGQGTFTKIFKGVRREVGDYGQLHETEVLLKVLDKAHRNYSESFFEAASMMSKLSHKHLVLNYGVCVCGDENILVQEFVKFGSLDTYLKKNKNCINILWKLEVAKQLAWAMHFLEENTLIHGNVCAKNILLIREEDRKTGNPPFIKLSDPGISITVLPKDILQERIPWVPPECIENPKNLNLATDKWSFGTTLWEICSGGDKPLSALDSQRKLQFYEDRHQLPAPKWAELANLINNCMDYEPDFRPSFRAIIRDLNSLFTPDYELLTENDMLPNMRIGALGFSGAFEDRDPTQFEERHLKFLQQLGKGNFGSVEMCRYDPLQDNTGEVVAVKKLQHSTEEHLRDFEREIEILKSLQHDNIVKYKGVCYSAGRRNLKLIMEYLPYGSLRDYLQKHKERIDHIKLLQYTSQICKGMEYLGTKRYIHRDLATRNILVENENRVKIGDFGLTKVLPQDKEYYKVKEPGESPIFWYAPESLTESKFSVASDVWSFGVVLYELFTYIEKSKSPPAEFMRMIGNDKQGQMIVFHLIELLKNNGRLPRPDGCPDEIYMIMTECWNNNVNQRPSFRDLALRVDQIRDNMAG

IC50 [1]: 98 nM | IC50 [2]: 670 nM | IC50 [3]: 39 nM
SMILES: CNc1nc(Nc2cnn(C(CC(N)=O)C3CCCCC3)c2)ncc1C(F)(F)F (stereo not drawn)

Reference: ChEMBL document CHEMBL3797141, “Design, synthesis and preliminary biological evaluation of 4-aminopyrazole derivatives as novel and potent JAKs inhibitors” (Bioorg Med Chem, 2016)
